According to patent US20030152910A1, “Method for identification and quantification of kinase inhibitors” (priority 1999, published 2003):
Values joined by “and” are separate entries in the source; they are usually repeats but may differ in a detail not shown here. Identical values can stand only once. Like-named read-outs stand apart in the source and are kept apart here.

Tests used:
[1] = system: UL97-transfected 293 cells (293UL); assay: Growth inhibition of 293UL cells by GCV (FIG. 11A); type: cell-based, human; details: for IC50: grown 90 h in presence of GCV
Description: 293 cells transfected with pUL97 expression construct (pcDNA3-UL97; see above under 2.1.) were grown for 14 d in presence of geneticin (750 μg/ml). Individual clones were isolated (minimal dilution), re-tested for geneticin resistance and for sensitivity to 100 μM GCV. Clones identified as geneticin resistant and GCV-sensitive were expanded and stored frozen in aliquots for further experiments, after having verified by Western blot their capacity to express UL97 protein.
293UL cells were routinely grown in DMEM supplemented with 10% FCS, glutamine (1%), pyruvate (1%), geneticin (final 0.5 mg G418/ml culture), and penicillin/streptomycin (1%). Medium was changed every 3-4 d, and cells were subcultured before reaching confluency by trypsin/EDTA treatment (exposure of adherent cells to 5 mg/ml trypsin and 2 mg/ml EDTA, dissolved in sterile 0.85% NaCl) and re-seeding in at least 5-fold dilution. Cells were maximally 10 times subcultured before a new frozen batch was used.
For routine antiproliferative assays, 293 UL cells were suspended at 13.8×10^3 cells/ml in complete medium, and 145 μl/well (2000 cells) of this suspension were seeded in 96-well flat-bottom plates (Nunclon #167008). After attachment of the cells for 24 h, drugs were added: All wells received 5 μl GCV (4 mM in complete medium, final concentration 100 μM), and each 3 wells received 50 μl compound (40 μM in complete medium+0.4% DMSO). A control series received 50 μl 40 μM compound only in the absence of GCV. Another control plate, which had received cells or medium only, was glutaraldehyde-fixed or frozen (see below) at the time of drug addition and stained for quantitation of cell density.
Cells were further incubated for 72 h and then analyzed for proliferation (staining with methylene blue or fluorescent dyes, see section 2.4).
A) UL97-transfected 293 cells 1,2,3,4: individual IC50 profiles (averages of triplicates); cells grown for 90 h in presence of GCV.

[2] = system: Non-transfected 293 cells devoid of UL97 kinase activity; assay: Growth inhibition of non-transfected 293 cells by GCV (FIG. 11B); type: cell-based, human
[3] = biological target: T1, human cytomegalovirus UL97 protein kinase (Human cytomegalovirus, UniProt P16788); assay: UL97 in-cell-activity assay (transfected 293 cells + GCV; colour conversion / LDH read-out); type: cell-based
T1 construct: expressed in transfected cells
Description: Human embryonic kidney cells 293 (ATCC CRL-1573), as cultivated with DMEM medium containing 5% fetal calf serum (FCS), were harvested by trypsinization, rinsed with PBS and seeded in 96-well plates at a cell number of 20,000 per well.
Transfection (Lipofectamin Plus reagents, GibcoBRL) was performed at a cell layer confluency of 50-75%. For this, identical transfection conditions were chosen for 24 wells of the 96-well plate to obtain determinations over a 8-well line in triplicate. One transfection set-up for 24 wells was composed as follows:
Meanwhile, culture media of the 96-well plates were removed by the use of a multichannel pipette and a 50-μl volume of fresh DMEM-0% FCS was given in each well. Then, 25 μl of each transfection set-up was added per well. Plates were incubated for 5 h at 37° C. in a 5% CO2 atmosphere. Subsequent to this incubation, a 125-μl volume of DMEM-10% FCS was added per well and incubated over night at 37° C. in a 5% CO2 atmosphere.
Transfection media were removed from the cells by the use of a multichannel pipette. […]
Visual and photometric determinations of the colour conversion of the phenol red-supplemented culture medium was performed by the use of a computer scanner and an ELISA reader (OD 560 nm).
Measurement of the lactate dehydrogenase (LDH) acitivity in the residual cell layer was performed with the CytoTox 96 Non-Radioactive Cytotoxicity (Promega). […] Thereafter, 50 μl of stop buffer was added and the colour reaction was quantitated by the use of an ELISA reader (OD 490 nm). […]
Five days after addition of the substances, the read-out of signals was performed by the photometric quantification of the colour conversion of the culture medium and, for comparison, by the measurement of LDH activity in the residual cell layers. Qualitative/semi-quantitative illustrations are given by computer scanning figures in (a) for colour conversion, and in (b) for LDH activity. Quantitative values are presented as the results of photometric determinations in (c) for colour conversion, and in (d) for LDH activity. […]

[4] = system: 293 cells transfected with wild-type or mutant pUL97 (K355M catalytically inactive); type: cell-based, human; details: 5 nM to 500 nM inhibitor, GCV 5-40 μM, wild-type and mutant pUL97, LDH 5 d posttransfection
Source text: If a test compound is capable of inhibiting the kinase, but additionally has a cytotoxic activity, no rescue from cell death would be observed. Thus, the method of the invention preferably comprises the additional step (e) distinguishing between (i) noncytotoxic test compounds having kinase inhibiting properties and (ii) test compounds having kinase inhibiting properties but additional cytotoxic side effects. Furthermore, the effect of a given test compound may be determined at several different concentrations of the test compound in order to obtain a more accurate information of the kinase inhibiting properties and possible unwanted cytotoxic side effects. […] In this manner, the concentration dependency and the target specificity of the inhibitory effect of the test compound and the concentration dependency of a possible cytotoxic effect may be determined together.
Substrate (e.g. ganciclovir) is then added in an appropriate concentration to transfected cells (as indicated in the diagram). […] As a measurement for cell death, either the colour conversion of the medium (containing phenol red as a pH indicator) can the quantified photometrically, or the LDH activity within the residual cell layer can be determined (resulting in low activities when extensive cell death has occurred). Other methods of quantification are also possible (e.g. measurement of cell proliferation). […]

`Nc1nc(O)c2ncn(COC(CO)CO)c2n1` [GCV, ganciclovir] was tested, and the “reduction of cell growth” value ([1]; 100 μM GCV, 3 d, methylene blue) was 50%, the IC50 ([1]; Homo sapiens, HEK293, 90 h, average ± s.d. of 4 profiles, read-out: IC50 growth inhibition, average) was 26 ± 11 µM and the IC50 ([1]; read-out: individual IC50 profiles (averages of triplicates)) was 41 µM and 19 µM and 17 µM. The IC50 ([2]; Homo sapiens, HEK293, non-transfected 293 cells) was 3700 µM and the “effect on proliferation of wild-type 293 cells” value ([2]; up to 100 μM GCV) was “not affected”.

With `Cn1c2ccccc2c2c3c(c4c5ccccc5n(CCC#N)c4c21)CNC3=O` [GÖ6976] the “specific inhibition of UL97 activity” value ([3]; 5 nM and 50 nM inhibitor, GCV 2.5 and 5 μM, pl18neo-UL97, LDH activity after 5 days) was “stronger at the 50-nM than at the 5-nM concentration”, the “identification as UL97-specific inhibitor” value ([3]; 50 nM inhibitor, GCV 1.25-160 μM, 5 days, colour conversion and LDH activity) was “identified as UL97-specific inhibitors” and the “inhibition of UL97 activity at the highest concentration (decrease in LDH activity indicates cytotoxicity)” value ([3]; 500 nM inhibitor, GCV 2.5 and 5 μM, LDH activity after 5 days) was “markedly decreased”.

For `CN[C@@H]1C[C@H]2O[C@@](C)([C@@H]1OC)n1c3ccccc3c3c4c(c5c6ccccc6n2c5c31)C(=O)NC4` [STP, staurosporine], the “inherent (nonspecific) cytotoxicity versus specific pUL97 inhibition” value [4] was “nonspecific cytotoxicity”.
